Experimental data reported in the NIST ThermoML archive (doi:10.1021/je060271a).
Several values for one entry are separate records, joined by “and”; a condition that tells them apart may be missing. Equal values may be shown once.

Conditions: 283.16 K, Liquid, Vibrating tube method

CCCC(=O)OCC(COC(=O)CCC)(COC(=O)CCC)COC(=O)CCC [pentaerythritol tetrabutyrate]
Conditions	mass density
961.7 kPa	1059.5 kg/m3
999.7 kPa	1059.6 kg/m3
1040.4 kPa	1059.6 kg/m3
1083.6 kPa	1059.5 kg/m3
1139.2 kPa	1059.6 kg/m3
1188.5 kPa	1059.7 kg/m3
1241.1 kPa	1059.6 kg/m3
1292.9 kPa	1059.7 kg/m3
1371.5 kPa	1059.9 kg/m3
1415.8 kPa	1059.8 kg/m3
1495.3 kPa	1059.8 kg/m3
1575.5 kPa	1059.9 kg/m3
1654.8 kPa	1060 kg/m3
1780.7 kPa	1060 kg/m3
1864.8 kPa	1060 kg/m3
1998.8 kPa	1060 kg/m3
2122.7 kPa	1060.1 kg/m3
2233.6 kPa	1060.3 kg/m3
2404.2 kPa	1060.4 kg/m3
2613.1 kPa	1060.5 kg/m3
2776.8 kPa	1060.6 kg/m3
2989.2 kPa	1060.8 kg/m3
3065.6 kPa	1060.8 kg/m3
3087.4 kPa	1060.8 kg/m3
3106 kPa	1060.8 kg/m3
3124.9 kPa	1060.8 kg/m3
3144.5 kPa	1060.9 kg/m3
3170 kPa	1060.8 kg/m3
3189.5 kPa	1060.9 kg/m3
3209.5 kPa	1060.9 kg/m3
3233.2 kPa	1060.9 kg/m3
3253.5 kPa	1060.9 kg/m3
3273.9 kPa	1060.9 kg/m3
3294.9 kPa	1061 kg/m3
3316.1 kPa	1060.8 kg/m3
3341.2 kPa	1060.9 kg/m3
3361.8 kPa	1061 kg/m3
3387.1 kPa	1061.1 kg/m3
3409.1 kPa	1061 kg/m3
3431.1 kPa	1061 kg/m3
3452.8 kPa	1061 kg/m3
3479 kPa	1061.1 kg/m3
3502 kPa	1060.9 kg/m3
3524 kPa	1061.1 kg/m3
3546.7 kPa	1061.2 kg/m3
3574.4 kPa	1061.1 kg/m3
3597.5 kPa	1061.1 kg/m3
3620.7 kPa	1061.1 kg/m3
3648.8 kPa	1061.1 kg/m3
3672.5 kPa	1061.2 kg/m3
3696.2 kPa	1061.2 kg/m3
3720.5 kPa	1061.2 kg/m3
3749.6 kPa	1061.2 kg/m3
3773 kPa	1061.2 kg/m3
3845.7 kPa	1061.3 kg/m3
3868.4 kPa	1061.3 kg/m3
3891.5 kPa	1061.4 kg/m3
3914 kPa	1061.3 kg/m3
3941.5 kPa	1061.3 kg/m3
3964.7 kPa	1061.3 kg/m3
3987.6 kPa	1061.4 kg/m3
4009.4 kPa	1061.4 kg/m3
4029.8 kPa	1061.4 kg/m3
4033 kPa	1061.4 kg/m3
4416.7 kPa	1061.6 kg/m3
4447.7 kPa	1061.7 kg/m3
4473.5 kPa	1061.6 kg/m3
4500 kPa	1061.6 kg/m3
4526.4 kPa	1061.8 kg/m3
4559.5 kPa	1061.7 kg/m3
4586.3 kPa	1061.8 kg/m3
4619.9 kPa	1061.7 kg/m3
4643.6 kPa	1061.7 kg/m3
4676.5 kPa	1061.6 kg/m3
4704.4 kPa	1061.8 kg/m3
4732.4 kPa	1061.8 kg/m3
4765.8 kPa	1061.8 kg/m3
4794.4 kPa	1061.8 kg/m3
4823.6 kPa	1061.8 kg/m3
4858.1 kPa	1061.8 kg/m3
4887.2 kPa	1061.9 kg/m3
4916.6 kPa	1061.9 kg/m3
4946.3 kPa	1061.9 kg/m3
4983.2 kPa	1061.9 kg/m3
4995.1 kPa	1062.1 kg/m3
4995.4 kPa	1061.9 kg/m3
4997.5 kPa	1062.1 kg/m3
4999.9 kPa	1062 kg/m3
5001.3 kPa	1061.9 kg/m3
5002.4 kPa	1061.9 kg/m3
5003.4 kPa	1062 kg/m3
5003.7 kPa	1062 kg/m3
5004.3 kPa	1061.9 kg/m3
5004.6 kPa	1062 kg/m3
5004.8 kPa	1062 kg/m3
5005 kPa	1062 kg/m3
5005.3 kPa	1062.1 kg/m3
5005.5 kPa	1062 kg/m3
5005.6 kPa	1062.1 kg/m3 and 1062 kg/m3
5005.8 kPa	1062 kg/m3
5006 kPa	1061.8 kg/m3
5006.2 kPa	1061.9 kg/m3
5006.3 kPa	1061.9 kg/m3 and 1062 kg/m3
5006.5 kPa	1062.1 kg/m3 and 1062 kg/m3
5006.7 kPa	1061.9 kg/m3
5006.9 kPa	1061.9 kg/m3 and 1062 kg/m3
5007 kPa	1062.1 kg/m3 and 1062 kg/m3
5007.2 kPa	1061.9 kg/m3 and 1062.1 kg/m3 and 1062 kg/m3
5007.4 kPa	1061.9 kg/m3 and 1062 kg/m3
5007.5 kPa	1062 kg/m3
5007.7 kPa	1062 kg/m3 and 1061.9 kg/m3
5007.9 kPa	1062.1 kg/m3 and 1062 kg/m3
5008 kPa	1062 kg/m3 and 1062.1 kg/m3
5008.1 kPa	1061.9 kg/m3 and 1062.2 kg/m3 and 1062 kg/m3
5008.2 kPa	1062 kg/m3 and 1061.9 kg/m3
5008.3 kPa	1062 kg/m3 and 1061.9 kg/m3
5008.5 kPa	1062 kg/m3 and 1062.1 kg/m3
5008.6 kPa	1061.9 kg/m3
5009.4 kPa	1061.9 kg/m3
5009.6 kPa	1061.9 kg/m3 and 1062 kg/m3
5009.8 kPa	1062 kg/m3 and 1061.9 kg/m3
5010 kPa	1062 kg/m3
5010.1 kPa	1061.9 kg/m3 and 1062 kg/m3
5010.3 kPa	1062 kg/m3 and 1062.1 kg/m3 and 1061.9 kg/m3
5010.5 kPa	1061.9 kg/m3
5010.7 kPa	1062.1 kg/m3 and 1062 kg/m3
5010.8 kPa	1062 kg/m3 and 1061.9 kg/m3
5011 kPa	1062.2 kg/m3
5011.2 kPa	1062.1 kg/m3 and 1061.9 kg/m3
5011.3 kPa	1062 kg/m3
5011.7 kPa	1061.9 kg/m3 and 1062 kg/m3 and 1062.1 kg/m3
5011.9 kPa	1061.9 kg/m3 and 1062 kg/m3
5012 kPa	1061.9 kg/m3
5012.2 kPa	1062 kg/m3 and 1062.1 kg/m3 and 1061.9 kg/m3
5012.4 kPa	1062 kg/m3 and 1061.9 kg/m3 and 1062.1 kg/m3
5012.6 kPa	1062 kg/m3 and 1061.9 kg/m3 and 1061.8 kg/m3
5012.7 kPa	1062 kg/m3
5012.9 kPa	1062 kg/m3
5013.1 kPa	1062 kg/m3
5013.8 kPa	1062 kg/m3
5013.9 kPa	1062 kg/m3
5017.5 kPa	1062 kg/m3
5022.8 kPa	1062 kg/m3
5022.9 kPa	1062.1 kg/m3
5025.4 kPa	1062 kg/m3
5025.5 kPa	1062 kg/m3
